Target: T1, human neutrophil elastase (Homo sapiens, UniProt P08246)
T1 construct: purchased Elastin Products Company
T1 sequence (P08246 30-267): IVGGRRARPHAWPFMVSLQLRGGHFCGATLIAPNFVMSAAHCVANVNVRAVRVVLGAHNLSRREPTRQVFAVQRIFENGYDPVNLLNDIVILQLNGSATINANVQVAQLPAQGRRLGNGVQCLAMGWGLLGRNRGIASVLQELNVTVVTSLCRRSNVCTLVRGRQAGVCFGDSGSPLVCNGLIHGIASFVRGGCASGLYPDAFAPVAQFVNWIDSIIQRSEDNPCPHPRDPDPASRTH
Experiment: Inhibitory action 2 against human neutrophil elastase (Test Example 2; fluorogenic substrate MeOSuc-AAPV-AMC, buffer with 400 mM NaCl, 0.2 mg/ml BSA)
Type: biochemical
Settings: 37° C., read-out: IC50 value (compound concentration required for 50% inhibition of human neutrophil elastase)
Protocol: Assay buffer (0.4 unit/ml HNE (human neutrophil elastase, available from Elastin Products Company), 200 mM HEPES [N-(2-hydroxyethyl)piperazine-N′-(2-ethanesulfonic acid)], pH 7.5, 400 mM NaCl, 0.2 mg/ml BSA (bovine serum albumin)) 100 μl, water for injection 20 μl and 1% DMSO (dimethyl sulfoxide) solution of the present compound 20 μl were mixed in a 96 well plate and the mixed solutions were pre-incubated at 37° C. for five minutes. After pre-incubation, MeOSuc-AAPV-AMC (methoxysuccinyl-alanyl-alanyl-prolyl-valyl-aminomethyl cumaride (available from Sigma Aldrich Corp.) solution as fluorogenic substrate (which was dissolved in 10% DMSO solution so as to adjust to 0.5 mM) 40 μl was added to the above-prepared mixed solution so as to initiate the reaction, and the mixture was incubated at 37° C. for five minutes. The fluorescence intensity of AMC was measured at an excitation wavelength of 380 nm and a fluorescence wavelength of 460 nm and the inhibition ratio was determined.

| IC50 [nM] | SMILES |
| --- | --- |
| 10.4 | Cc1c(-c2ccnn2-c2ccc(C#N)cc2)c(=O)n(C(C)CN2CC(O)C2)c(=O)n1-c1cccc(C(F)(F)F)c1 (stereo not drawn) [Example 390] |
| 5.5 | Cc1c(-n2cnnc2-c2ccc(C#N)cc2)c(=O)n(C(C)C)c(=O)n1-c1cccc(C(F)(F)F)c1 [Example 65, 4-(4-(3-Isopropyl-6-methyl-2,4-dioxo-1-(3-(trifluoromethyl)phenyl)-1,2,3,4-tetrahydropyrimidin-5-yl)-4H-1,2,4-triazol-3-yl)benzonitrile] |
| 42.7 | CCn1c(=O)c(-c2c(C3(N)CCC3)cnn2-c2ccc(C#N)cc2)c(C)n(-c2cccc(C(F)(F)F)c2)c1=O [Example 298] |
| 7.2 | Cc1c(-c2c(S(=O)(=O)NC(=O)C3CCCCC3)cnn2-c2ccc(C#N)cc2)c(=O)n(C)c(=O)n1-c1cccc(C(F)(F)F)c1 [Example 261] |
| 10 | CCn1c(=O)c(-c2c(C(=O)N3CC(O)C3)cnn2-c2ccc(C#N)cc2)c(C)n(-c2cccc(C(F)(F)F)c2)c1=O [Example 156] |
| 24.3 | Cc1c(-c2ccnn2-c2ccc(C#N)cc2F)c(=O)n(C)c(=O)n1-c1cccc(C(F)(F)F)c1 [Example 326] |
| 23.7 | Cc1c(-c2c(S(C)(=O)=O)cnn2-c2ccc(C#N)cc2)c(=O)n(C)c(=O)n1-c1cccc(C(F)(F)F)c1 [Example 265] |
| 8.9 | Cc1c(-c2ccnn2-c2ccc(C#N)cc2)c(=O)n(C(C)CN2CCC(S(C)(=O)=O)CC2)c(=O)n1-c1cccc(C(F)(F)F)c1 (stereo not drawn) [Example 387] |
| 7.8 | Cc1c(-c2c(S(=O)(=O)NCCO)cnn2-c2ccc(C#N)cc2)c(=O)n(C)c(=O)n1-c1cccc(C(F)(F)F)c1 [Example 227] |
| 25.1 | Cc1c(-c2c(C3(O)CCS(=O)(=O)CC3)cnn2-c2ccc(C#N)cc2)c(=O)n(C)c(=O)n1-c1cccc(C(F)(F)F)c1 [Example 293] |
| 5.4 | Cc1c(-c2c(C(=O)N(C)C)cnn2-c2ccc(C#N)cc2)c(=O)n(C(C)C)c(=O)n1-c1cccc(C(F)(F)F)c1 [Example 153] |
| 19.1 | Cc1c(-c2c(C#N)cnn2-c2ccc(C#N)cc2)c(=O)n(C)c(=O)n1-c1cccc(C(F)(F)F)c1 [Example 363, 1-(4-Cyanophenyl)-5-(3,6-dimethyl-2,4-dioxo-1-(3-trifluoromethyl)-1,2,3,4-tetrahydropyrimidin-5-yl)-1H-pyrazole-4-carbonitrile] |
| 26.3 | Cc1c(-c2ccnn2-c2ccc(C#N)cc2)c(=O)n(C(C)CNS(C)(=O)=O)c(=O)n1-c1cccc(C(F)(F)F)c1 (stereo not drawn) [Example 393] |
| 8.1 | Cc1c(-c2ccnn2-c2ccc(C#N)cc2)c(=O)n(C2CCN(C(=O)C(C)(C)O)CC2)c(=O)n1-c1cccc(C(F)(F)F)c1 [Example 355] |
| 24.8 | Cc1cc(C#N)ccc1-n1nccc1-c1c(C)n(-c2cccc(C(F)(F)F)c2)c(=O)n(C)c1=O [Example 328] |
| 11.4 | CCn1c(=O)c(-c2c(C(=O)N(C)CCO)cnn2-c2ccc(C#N)cc2)c(C)n(-c2cccc(C(F)(F)F)c2)c1=O [Example 176] |
| 5.4 | CCCCC(=O)NS(=O)(=O)c1cnn(-c2ccc(C#N)cc2)c1-c1c(C)n(-c2cccc(C(F)(F)F)c2)c(=O)n(C)c1=O [Example 243] |
| 12.9 | Cc1c(-c2ccnn2-c2ccc(C#N)cc2)c(=O)n(C(C)CCNC2CC(F)(F)C2)c(=O)n1-c1cccc(C(F)(F)F)c1 (stereo not drawn) [Example 406] |
| 26.2 | CCn1c(=O)c(-c2c(C(C)(C)O)cnn2-c2ccc(C#N)cc2)c(C)n(-c2cccc(C(F)(F)F)c2)c1=O [Example 288, 4-(5-(3-ethyl-6-methyl-2,4-dioxo-1-(3-trifluoromethylphenyl)-1,2,3,4-tetrahydropyrimidin-5-yl)-4-(2-hydroxypropan-2-yl)-1H-pyrazol-1-yl)benzonitrile] |
| 8.4 | Cc1c(-c2c(S(=O)(=O)O)cnn2-c2ccc(C#N)cc2)c(=O)n(C)c(=O)n1-c1cccc(C(F)(F)F)c1 [Example 196] |
| 14.7 | CNS(=O)(=O)c1cnn(-c2ccc(C#N)cc2)c1-c1c(C)n(-c2cccc(C(F)(F)F)c2)c(=O)n(C)c1=O [Example 218] |

Reference: patent US9040516B2, “Uracil derivative and use thereof for medical purposes” (SUMITOMO DAINIPPON PHARMA CO., LTD., priority 2011, dated 2015)
